Laboratory results from ChEMBL document CHEMBL1201862, “PubChem BioAssay data set” (2004).
The source made the active and inactive calls.

Experiments:
Ion channel NompC = Ion channel NompC (Danio rerio, UniProt Q7T1G6); assay: Dose response cell-based high-throughput screening assay for agonists of the transient receptor potential channel N1 (TRPN1). [Related pubchem assays (depositor defined):AID1424, AID1448]; format: functional
Mucolipin-3 = biological target: T1, Mucolipin-3 (Homo sapiens, UniProt Q8TDD5); assay: Fluorescence counterscreen assay for […] agonists: dose response cell-based high-throughput screening assay to identify agonists of the transient receptor potential channel ML3 (TRPML3). [Related pubchem assays: 1424, 1448 ]; format: functional
T1 sequence (Q8TDD5 whole entry): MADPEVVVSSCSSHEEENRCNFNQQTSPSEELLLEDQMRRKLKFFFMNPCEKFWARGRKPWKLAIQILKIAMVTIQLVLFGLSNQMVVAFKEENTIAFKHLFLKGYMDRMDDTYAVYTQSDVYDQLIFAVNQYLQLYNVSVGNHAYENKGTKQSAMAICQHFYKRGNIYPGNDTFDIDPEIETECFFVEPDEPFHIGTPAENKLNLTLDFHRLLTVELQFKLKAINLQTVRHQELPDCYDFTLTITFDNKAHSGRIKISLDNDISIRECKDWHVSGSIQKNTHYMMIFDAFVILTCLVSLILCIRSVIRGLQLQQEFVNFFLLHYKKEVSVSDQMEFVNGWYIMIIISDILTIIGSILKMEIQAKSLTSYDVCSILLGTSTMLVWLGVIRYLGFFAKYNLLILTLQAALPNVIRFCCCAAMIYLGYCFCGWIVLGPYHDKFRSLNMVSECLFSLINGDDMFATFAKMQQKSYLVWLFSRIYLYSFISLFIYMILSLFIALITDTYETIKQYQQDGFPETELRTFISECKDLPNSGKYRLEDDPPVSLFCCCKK

[1] = biological target: T2, Runt-related transcription factor 1/Core-binding factor subunit beta (Homo sapiens, UniProt Q01196+Q13951); assay: Runt domain/CBFb-SMMHC interaction disruptors – biochemical, TR-FRET (AID 1438); format: protein assay
T2 sequence (Q01196 whole entry, the tested form may be a part): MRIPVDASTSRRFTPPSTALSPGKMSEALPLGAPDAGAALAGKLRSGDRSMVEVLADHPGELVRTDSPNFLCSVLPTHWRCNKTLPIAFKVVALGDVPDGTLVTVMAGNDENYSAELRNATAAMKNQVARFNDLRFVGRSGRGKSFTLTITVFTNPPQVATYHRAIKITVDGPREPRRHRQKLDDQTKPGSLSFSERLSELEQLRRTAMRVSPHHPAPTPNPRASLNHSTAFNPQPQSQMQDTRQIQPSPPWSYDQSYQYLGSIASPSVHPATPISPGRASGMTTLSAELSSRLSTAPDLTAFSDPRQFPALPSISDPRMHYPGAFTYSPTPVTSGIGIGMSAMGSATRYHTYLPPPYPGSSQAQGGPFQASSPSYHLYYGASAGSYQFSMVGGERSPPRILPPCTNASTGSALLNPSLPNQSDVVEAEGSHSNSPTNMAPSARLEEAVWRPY
T2 sequence (Q13951 whole entry, the tested form may be a part): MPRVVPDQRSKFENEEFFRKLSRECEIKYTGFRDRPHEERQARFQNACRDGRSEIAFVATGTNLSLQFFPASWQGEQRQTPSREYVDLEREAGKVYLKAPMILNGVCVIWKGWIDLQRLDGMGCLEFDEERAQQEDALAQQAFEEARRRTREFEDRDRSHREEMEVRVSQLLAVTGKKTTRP

[2] = biological target: T2, Runt-related transcription factor 1/Core-binding factor subunit beta; assay: disruptors of Runt domain/CBFb-SMMHC interaction – biochemical, FRET, Cerulean-Runt, Venus-CBFb-SMMHC, uHTS, […] (AID 1434); format: protein assay
Protein RecA = biological target: T3, Protein RecA (Mycobacterium tuberculosis, UniProt P9WHJ3); assay: Fluorescence Cell-Free Homogeneous Dose Retest to Identify Inhibitors of RecA-Intein Splicing Activity. [Related pubchem assays (depositor defined):AID2097, AID2223, AID489010, AID492950]; format: functional
T3 sequence (P9WHJ3 whole entry): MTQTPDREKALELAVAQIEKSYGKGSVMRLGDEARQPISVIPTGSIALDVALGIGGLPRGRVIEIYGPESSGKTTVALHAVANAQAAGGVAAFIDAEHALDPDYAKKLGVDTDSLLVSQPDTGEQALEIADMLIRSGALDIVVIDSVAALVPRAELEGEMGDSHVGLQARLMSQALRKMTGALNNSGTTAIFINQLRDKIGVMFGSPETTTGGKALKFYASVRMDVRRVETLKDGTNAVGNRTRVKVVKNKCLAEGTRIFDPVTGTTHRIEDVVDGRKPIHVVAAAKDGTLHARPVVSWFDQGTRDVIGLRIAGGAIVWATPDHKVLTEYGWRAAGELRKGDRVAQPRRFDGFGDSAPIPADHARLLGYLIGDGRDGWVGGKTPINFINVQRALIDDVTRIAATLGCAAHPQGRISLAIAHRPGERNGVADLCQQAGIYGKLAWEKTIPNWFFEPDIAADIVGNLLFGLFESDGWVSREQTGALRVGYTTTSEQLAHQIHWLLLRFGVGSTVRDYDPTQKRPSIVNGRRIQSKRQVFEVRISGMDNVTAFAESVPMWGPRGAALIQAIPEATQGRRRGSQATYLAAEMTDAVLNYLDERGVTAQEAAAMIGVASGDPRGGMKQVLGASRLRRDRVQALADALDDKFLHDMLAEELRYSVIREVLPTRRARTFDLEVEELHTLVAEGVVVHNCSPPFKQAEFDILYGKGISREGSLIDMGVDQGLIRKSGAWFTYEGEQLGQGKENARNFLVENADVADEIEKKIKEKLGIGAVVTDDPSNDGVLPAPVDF

BJ [3] = assay: BJ-TERT fibroblast viability loss – cell-based, RAS-independent, luminescence, dose response (AID 1933); format: functional; conditions: Homo sapiens
[4] = viability of HCT116 lacking mutant beta-catenin – cell-based, human colon tumor, dose response (AID 1045); format: functional;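 also: HCT116 colon tumor cells with beta catenin knocked out; cells exposed to compound for 60 hours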
[5] = DRD fibroblast viability loss – cell-based, non-viral oncogenic, luminescence, dose response (AID 1934); format: functional; conditions: Homo sapiens
BJ [6] = assay: BJ-TERT-LT-ST fibroblast viability loss – cell-based, RAS-independent, luminescence, dose response (AID 1935); format: functional; conditions: Homo sapiens;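 also: BJ fibroblasts immortalized with TERT plus LT and ST oncogenes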
[7] = viability of PTEN-deleted HCT116 cells – cell-based, HCT116 PTEN knockout, dose response (AID 1047); format: functional;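 also: HCT116 colon tumor cells with PTEN knocked out; cells exposed to compound for 60 hours before readout; potency for loss of cell viability measured by luminescence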
BJ [8] = assay: cells; format: functional, cell-based; conditions: Homo sapiens
[9] = viability of uninfected HEp-2 cells – cell-based, HTS, cytotoxicity control for RSV inhibitor project, dose response (AID 2410); format: functional; conditions: human respiratory syncytial virus
CAAX prenyl protease 2 = CAAX prenyl protease 2 (Saccharomyces cerevisiae S288c, UniProt Q03530); format: biochemical
Chain of CAAX prenyl protease 2 (Q03530 whole entry): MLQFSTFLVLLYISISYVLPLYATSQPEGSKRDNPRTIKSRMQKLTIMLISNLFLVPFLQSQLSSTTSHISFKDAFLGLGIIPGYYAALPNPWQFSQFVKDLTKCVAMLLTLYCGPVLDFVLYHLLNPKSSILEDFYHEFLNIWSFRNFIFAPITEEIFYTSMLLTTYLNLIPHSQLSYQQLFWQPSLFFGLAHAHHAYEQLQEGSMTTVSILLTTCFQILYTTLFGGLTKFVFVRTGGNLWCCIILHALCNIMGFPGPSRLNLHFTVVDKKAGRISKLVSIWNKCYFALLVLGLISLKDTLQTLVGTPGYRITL

[10] = biological target: T4, Replicative DNA helicase DnaB (Mycobacterium tuberculosis, UniProt P9WMR3); assay: DnaB intein splicing inhibitors, dose response, biochemical, cell-free fluorescence (AID 449749); format: functional
T4 sequence (P9WMR3 whole entry): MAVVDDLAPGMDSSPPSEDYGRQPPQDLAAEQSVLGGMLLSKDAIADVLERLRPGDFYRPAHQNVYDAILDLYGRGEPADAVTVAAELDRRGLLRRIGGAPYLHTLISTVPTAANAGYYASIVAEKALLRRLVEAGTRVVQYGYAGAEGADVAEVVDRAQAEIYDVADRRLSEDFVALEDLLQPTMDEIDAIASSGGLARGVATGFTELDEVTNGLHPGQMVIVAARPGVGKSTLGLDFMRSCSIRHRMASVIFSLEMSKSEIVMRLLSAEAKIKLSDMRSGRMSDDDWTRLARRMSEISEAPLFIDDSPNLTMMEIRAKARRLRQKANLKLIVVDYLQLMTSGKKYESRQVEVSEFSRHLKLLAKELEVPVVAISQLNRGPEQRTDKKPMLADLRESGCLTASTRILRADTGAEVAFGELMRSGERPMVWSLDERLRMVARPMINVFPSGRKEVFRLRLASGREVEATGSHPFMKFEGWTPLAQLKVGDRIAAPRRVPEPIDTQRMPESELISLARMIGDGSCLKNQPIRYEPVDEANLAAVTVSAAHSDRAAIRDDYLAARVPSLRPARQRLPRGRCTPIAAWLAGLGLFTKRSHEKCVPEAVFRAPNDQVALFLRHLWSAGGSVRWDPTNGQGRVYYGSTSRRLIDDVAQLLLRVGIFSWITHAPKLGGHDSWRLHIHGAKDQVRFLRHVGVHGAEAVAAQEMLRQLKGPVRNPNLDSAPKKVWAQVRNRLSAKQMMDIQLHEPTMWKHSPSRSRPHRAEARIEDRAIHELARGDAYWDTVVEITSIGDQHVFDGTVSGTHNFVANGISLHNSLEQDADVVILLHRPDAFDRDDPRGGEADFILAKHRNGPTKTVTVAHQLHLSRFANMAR

[11] = biological target: T5, Sphingosine 1-phosphate receptor 4 (Homo sapiens, UniProt O95977); assay: Fluorescence dose response cell-based high throughput screening assay for agonists of the Sphingosine 1-Phosphate Receptor 4 (S1P4). [Related pubchem assays: 1509 (Primary screen.), 1523 (Confirmation screen in triplicates.)]; format: functional
T5 sequence (O95977 whole entry): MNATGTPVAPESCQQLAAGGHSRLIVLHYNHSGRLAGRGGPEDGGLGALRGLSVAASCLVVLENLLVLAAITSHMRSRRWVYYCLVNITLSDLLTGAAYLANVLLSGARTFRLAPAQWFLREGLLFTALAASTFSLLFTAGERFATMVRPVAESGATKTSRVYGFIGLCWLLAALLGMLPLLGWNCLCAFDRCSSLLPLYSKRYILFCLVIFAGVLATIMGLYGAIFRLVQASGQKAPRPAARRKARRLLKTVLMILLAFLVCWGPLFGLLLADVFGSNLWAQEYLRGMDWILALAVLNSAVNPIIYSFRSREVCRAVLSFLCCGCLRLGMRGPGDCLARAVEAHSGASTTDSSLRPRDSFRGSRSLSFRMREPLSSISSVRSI

[12] = biological target: Sphingosine 1-phosphate receptor 1 (Homo sapiens, UniProt P21453); assay: Fluorescence-based counterscreen assay for S1P4 agonists: Cell-based dose response high throughput screening assay to identify agonists of the Sphingosine 1-Phosphate Receptor 1 (S1P1). [Related pubchem assays (depositor defined):AID1509, AID1523, AID1801, AID463107, AID463118, AID463119, AID463122, AID463123, AID463129, AID463225, AID504400, AID504460]; format: functional
Chain of Sphingosine 1-phosphate receptor 1 (P21453 whole entry): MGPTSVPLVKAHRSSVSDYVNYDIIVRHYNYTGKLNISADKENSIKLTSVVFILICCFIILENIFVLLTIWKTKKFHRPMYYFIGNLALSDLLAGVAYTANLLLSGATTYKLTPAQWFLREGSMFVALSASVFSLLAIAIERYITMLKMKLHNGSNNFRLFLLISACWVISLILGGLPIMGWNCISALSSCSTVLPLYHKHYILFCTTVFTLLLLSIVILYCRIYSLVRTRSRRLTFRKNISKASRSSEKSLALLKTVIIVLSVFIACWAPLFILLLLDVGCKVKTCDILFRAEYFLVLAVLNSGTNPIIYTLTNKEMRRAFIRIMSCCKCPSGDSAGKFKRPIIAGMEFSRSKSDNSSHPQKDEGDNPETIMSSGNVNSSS

[13] = biological target: Signal transducer and activator of transcription 1-alpha/beta (Homo sapiens, UniProt P42224); assay: STAT3 blockade with qPCR and toxicity readouts – cell-based, STAT1 panel, cytotoxicity, late-stage follow-up, panel member STAT1 Inhibition (AID 2078)
Chain of Signal transducer and activator of transcription 1-alpha/beta (P42224 whole entry): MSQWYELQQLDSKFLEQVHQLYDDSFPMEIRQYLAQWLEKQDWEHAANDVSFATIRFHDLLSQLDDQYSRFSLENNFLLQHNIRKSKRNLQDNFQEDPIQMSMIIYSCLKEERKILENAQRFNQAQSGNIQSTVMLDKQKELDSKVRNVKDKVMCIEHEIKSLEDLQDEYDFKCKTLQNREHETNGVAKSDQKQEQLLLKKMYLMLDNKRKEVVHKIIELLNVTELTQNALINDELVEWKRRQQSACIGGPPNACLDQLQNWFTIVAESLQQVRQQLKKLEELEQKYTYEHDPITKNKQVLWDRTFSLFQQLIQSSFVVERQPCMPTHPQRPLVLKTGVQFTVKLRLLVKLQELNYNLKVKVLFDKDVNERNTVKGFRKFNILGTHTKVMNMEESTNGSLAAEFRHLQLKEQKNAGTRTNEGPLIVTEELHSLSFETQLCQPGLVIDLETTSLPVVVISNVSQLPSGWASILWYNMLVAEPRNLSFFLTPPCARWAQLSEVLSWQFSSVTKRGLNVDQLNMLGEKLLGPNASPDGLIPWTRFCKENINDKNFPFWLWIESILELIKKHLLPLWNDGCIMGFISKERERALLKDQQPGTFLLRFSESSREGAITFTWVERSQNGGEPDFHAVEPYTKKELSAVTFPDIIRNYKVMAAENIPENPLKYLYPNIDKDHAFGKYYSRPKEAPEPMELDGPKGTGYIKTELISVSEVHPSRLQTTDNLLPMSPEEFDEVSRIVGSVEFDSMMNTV

[14] = biological target: Signal transducer and activator of transcription 3 (Homo sapiens, UniProt P40763); assay: STAT3 blockade with qPCR and toxicity readouts – cell-based, STAT1 panel, cytotoxicity, late-stage follow-up, panel member STAT3 Inhibition (AID 2078)
Chain of Signal transducer and activator of transcription 3 (P40763 whole entry): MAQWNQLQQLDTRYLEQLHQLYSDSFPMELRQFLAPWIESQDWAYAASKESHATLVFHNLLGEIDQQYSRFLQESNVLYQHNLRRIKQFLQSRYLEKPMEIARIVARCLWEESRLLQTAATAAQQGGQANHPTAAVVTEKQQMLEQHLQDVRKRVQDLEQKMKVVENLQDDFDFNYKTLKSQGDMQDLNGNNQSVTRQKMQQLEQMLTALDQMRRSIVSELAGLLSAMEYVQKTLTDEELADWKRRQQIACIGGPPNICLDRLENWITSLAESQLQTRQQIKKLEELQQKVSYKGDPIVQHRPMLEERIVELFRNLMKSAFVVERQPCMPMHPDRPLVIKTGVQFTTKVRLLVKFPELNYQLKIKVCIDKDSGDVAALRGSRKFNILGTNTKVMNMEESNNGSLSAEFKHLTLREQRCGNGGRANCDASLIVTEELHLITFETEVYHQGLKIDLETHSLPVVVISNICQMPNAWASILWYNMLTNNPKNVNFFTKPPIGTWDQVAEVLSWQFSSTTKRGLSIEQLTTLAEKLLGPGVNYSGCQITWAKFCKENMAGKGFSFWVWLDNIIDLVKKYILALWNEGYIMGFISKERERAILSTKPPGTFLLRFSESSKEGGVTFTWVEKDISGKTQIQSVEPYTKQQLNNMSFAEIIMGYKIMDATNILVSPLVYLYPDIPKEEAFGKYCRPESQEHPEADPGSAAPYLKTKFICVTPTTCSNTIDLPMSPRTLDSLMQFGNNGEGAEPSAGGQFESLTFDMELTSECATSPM

[15] = biological target: T5, Sphingosine 1-phosphate receptor 4; assay: Late-stage fluorescence dose response cell-based assay to identify agonists of the Sphingosine 1-Phosphate Receptor 4 (S1P4): purchased compounds EC50. [Related pubchem assays (depositor defined):AID1509, AID1523, AID1563, AID1686, AID1701, AID1801]; format: functional
[16] = biological target: T6, G-protein coupled receptor 35 (Homo sapiens, UniProt Q9HC97); assay: SAR analysis of Agonists of the GPR35 Receptor using an Image-Based Assay - Set 4. [Related pubchem assays (depositor defined):AID2013, AID2026]; format: functional
T6 sequence (Q9HC97 whole entry): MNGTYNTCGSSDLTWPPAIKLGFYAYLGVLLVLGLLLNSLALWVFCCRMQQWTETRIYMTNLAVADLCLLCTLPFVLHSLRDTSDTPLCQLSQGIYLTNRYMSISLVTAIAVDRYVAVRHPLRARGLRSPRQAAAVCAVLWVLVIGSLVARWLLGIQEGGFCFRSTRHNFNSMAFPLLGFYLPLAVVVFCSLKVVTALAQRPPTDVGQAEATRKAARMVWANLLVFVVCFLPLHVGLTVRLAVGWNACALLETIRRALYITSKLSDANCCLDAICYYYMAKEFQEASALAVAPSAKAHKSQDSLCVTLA

Cannabinoid receptor 2 [17] = biological target: T7, Cannabinoid receptor 2 (Homo sapiens, UniProt P34972); assay: SAR analysis of antagonists of the Cannabinoid Receptor 2 using an Image-Based Assay - Set 3. [Related pubchem assays (depositor defined):AID2013, AID2026]; format: functional
T7 sequence (P34972 whole entry): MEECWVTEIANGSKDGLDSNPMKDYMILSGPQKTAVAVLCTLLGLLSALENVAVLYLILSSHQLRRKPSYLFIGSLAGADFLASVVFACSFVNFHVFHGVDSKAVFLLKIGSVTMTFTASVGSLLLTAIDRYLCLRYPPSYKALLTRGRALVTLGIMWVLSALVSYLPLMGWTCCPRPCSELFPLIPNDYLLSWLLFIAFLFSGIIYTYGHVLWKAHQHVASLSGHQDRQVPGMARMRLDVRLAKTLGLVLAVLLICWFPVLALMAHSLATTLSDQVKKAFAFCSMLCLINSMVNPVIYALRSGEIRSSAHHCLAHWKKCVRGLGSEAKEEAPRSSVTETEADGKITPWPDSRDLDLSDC

[18] = biological target: T6, G-protein coupled receptor 35; assay: SAR analysis of Antagonists of the GPR35 Receptor using an Image-Based Assay - Set 6. [Related pubchem assays (depositor defined):AID2013, AID2026]; format: functional
[19] = biological target: G-protein coupled receptor 55 (Homo sapiens, UniProt Q9Y2T6); assay: SAR Analysis of Selective Antagonists of GPR55 using an Image-Based Assay - Set 4. [Related pubchem assays (depositor defined):AID2013, AID2026]; format: functional;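 also: antagonism of response to 5 µM lysophosphatidylinositol agonist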
Chain of G-protein coupled receptor 55 (Q9Y2T6 whole entry): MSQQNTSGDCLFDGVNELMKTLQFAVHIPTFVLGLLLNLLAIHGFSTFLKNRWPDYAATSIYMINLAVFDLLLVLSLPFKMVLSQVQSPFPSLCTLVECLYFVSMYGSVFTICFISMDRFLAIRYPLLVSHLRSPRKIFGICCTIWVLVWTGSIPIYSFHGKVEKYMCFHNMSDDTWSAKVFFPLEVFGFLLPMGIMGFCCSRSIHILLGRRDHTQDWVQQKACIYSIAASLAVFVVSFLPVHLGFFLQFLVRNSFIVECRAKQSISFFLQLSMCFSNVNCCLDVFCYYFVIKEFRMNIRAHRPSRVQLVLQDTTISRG

Cannabinoid receptor 1 [20] = biological target: T8, Cannabinoid receptor 1 (Homo sapiens, UniProt P21554); assay: SAR analysis of antagonists of the Cannabinoid Receptor 1 using an Image-Based Assay - Set 4. [Related pubchem assays (depositor defined):AID2013, AID2026]; format: functional
T8 sequence (P21554 whole entry): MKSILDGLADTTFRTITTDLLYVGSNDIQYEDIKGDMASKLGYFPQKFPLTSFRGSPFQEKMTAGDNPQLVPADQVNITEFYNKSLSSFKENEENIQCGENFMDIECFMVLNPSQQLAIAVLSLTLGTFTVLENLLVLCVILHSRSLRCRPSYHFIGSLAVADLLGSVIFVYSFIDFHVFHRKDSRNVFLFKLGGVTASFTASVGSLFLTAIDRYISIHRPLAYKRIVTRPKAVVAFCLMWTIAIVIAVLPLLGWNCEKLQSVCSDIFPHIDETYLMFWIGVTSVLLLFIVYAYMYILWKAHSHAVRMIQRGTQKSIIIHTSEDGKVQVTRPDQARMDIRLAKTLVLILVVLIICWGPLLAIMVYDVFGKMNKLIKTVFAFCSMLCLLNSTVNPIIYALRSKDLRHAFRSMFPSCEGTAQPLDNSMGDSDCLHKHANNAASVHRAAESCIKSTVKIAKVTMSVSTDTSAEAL

Cannabinoid receptor 1 [21] = biological target: T8, Cannabinoid receptor 1; assay: SAR analysis of agonists of the Cannabinoid Receptor 1 using an Image-Based Assay - Set 4. [Related pubchem assays (depositor defined):AID2013, AID2026]; format: functional
Cannabinoid receptor 2 [22] = biological target: T7, Cannabinoid receptor 2; assay: SAR analysis of agonists of the Cannabinoid Receptor 2 using an Image-Based Assay - Set 3. [Related pubchem assays (depositor defined):AID2013, AID2026]; format: functional
Hexokinase = Hexokinase (Trypanosoma brucei, UniProt Q38C41); assay: Confirmation assay for inhibitors of Trypanosoma brucei hexokinase 1-Analogue-first series. [Related pubchem assays (depositor defined):AID1430, AID1632, AID2516, AID2560, AID2579, AID2600, AID449725, AID492951]; format: functional
[23] = biological target: Alkaline phosphatase, placental type (Homo sapiens, UniProt P05187); assay: human placental alkaline phosphatase inhibition – biochemical, luminescence, confirmation (AID 1512); format: functional
[24] = biological target: Glyceraldehyde-3-phosphate dehydrogenase (Homo sapiens, UniProt P04406)
Chain of Glyceraldehyde-3-phosphate dehydrogenase (P04406 whole entry): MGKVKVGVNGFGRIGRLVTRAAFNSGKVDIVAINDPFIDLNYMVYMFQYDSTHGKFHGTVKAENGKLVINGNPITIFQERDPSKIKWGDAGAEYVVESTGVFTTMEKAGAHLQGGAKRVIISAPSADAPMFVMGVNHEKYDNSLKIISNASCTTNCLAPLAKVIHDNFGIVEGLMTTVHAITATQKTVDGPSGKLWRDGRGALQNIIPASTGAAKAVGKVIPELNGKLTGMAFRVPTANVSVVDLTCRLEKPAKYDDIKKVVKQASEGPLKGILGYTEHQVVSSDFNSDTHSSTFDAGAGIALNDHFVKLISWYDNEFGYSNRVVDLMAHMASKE

## CCOC(=O)C1C(c2ccc3c(c2)OCO3)NC(=O)NC1(O)C(F)(F)F (centres undefined)
Ion channel NompC
  EC50: > 29.9 µM (inactive)
Mucolipin-3
  EC50: > 29.9 µM (not active)

## O=C1Nc2ccccc2C12Nc1ccccc1S2 (centres undefined)
[1]
  IC50: 28.2 µM (active)
[2]
  IC50: 8.95 µM (active)

## COC(=O)CSc1nc(N)c2c3c(sc2n1)C(c1ccccc1)SC(c1ccccc1)C3 (centres undefined)
Protein RecA
  EC50: > 380 µM (inactive)
BJ [3]
  EC50: 8.88 µM (inconclusive)
[4]
  EC50: 14.4 µM (active)
[5]
  EC50: 11.4 µM (active)
BJ [6]
  EC50: 17.1 µM (inconclusive)
[7]
  EC50: 14.2 µM (active)
BJ [8]
  EC50: > 150 µM (inconclusive)
[9]
  CC50: > 50 µM (active)
CAAX prenyl protease 2
  AC50: 13.8 µM (active)
[10]
  AC50: > 380 µM (inactive)

## CCOC(=O)c1c(-n2c(C)cc(/C=C3\C(=O)NC(=O)N(C)C3=O)c2C)sc2c1CCCC2
[11]
  EC50: > 49.8 µM (not active)
[12]
  EC50: > 49.8 µM (inactive)

## Cc1sc2ncnc(N3CCC(C(=O)c4ccccc4)CC3)c2c1C
[13]
  IC50: > 55.7 µM (inactive)
[14]
  IC50: 5.21 µM (active)

## Cc1ccc(OCC(=O)Nc2ccc(Cl)cc2F)c([N+](=O)[O-])n1
[15]
  EC50: > 50 µM (inactive)

## Cc1[nH]nc(-c2ccc(O)cc2O)c1-c1ccc(Br)cc1
[16]
  EC50: > 32 µM (inactive)
Cannabinoid receptor 2 [17]
  IC50: 9.2 µM (active)
[18]
  IC50: > 32 µM (inactive)
[19]
  IC50: 5.4 µM (active)
Cannabinoid receptor 1 [20]
  IC50: 0.981 µM (active)
Cannabinoid receptor 1 [21]
  EC50: > 32 µM (inactive)
Cannabinoid receptor 2 [22]
  EC50: > 32 µM (inactive)

## O=c1c2cccnc2sn1-c1ccccc1
Hexokinase
  IC50: 2.27 µM (active)

## CN(C)C(=O)c1cc(-c2cc(F)c(Cl)cc2Cl)n[nH]1
[23]
  IC50: > 100 µM (inactive)
[24]
  IC50: > 100 µM (not active)
